# Assay results from patent publication US20110028566A1, “COMPOSITIONS AND PRODUCTS CONTAINING CYCLOALIPHATIC DIOL ANTIMICROBIAL AGENTS AND METHODS OF USING THE COMPOSITIONS AND PRODUCTS” (EASTMAN CHEMICAL COMPANY, priority 2009, published 2011).
# Columns and labels:
# Test in all cases: Microbial challenge testing in BPW
# Type in all cases: cell-based
# Candida albicans = system: Candida albicans
# How it was run: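 C. albicans was grown in TSB with 1% dextrose at 22°C and harvested by gauze filtration and centrifugation. It was then adjusted by turbidity in pH 7.2 phosphate buffer and checked by hemocytometer and SDA plate counts. The inoculum was added to BPW (pH 7.0, 1% dextrose) containing test materials, giving 10^5–10^6 cfu/mL at time zero.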
# [1] = system: Staphylococcus epidermidis
# How it was run: (§1)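 Each organism, grown in TSB with 1% dextrose 96 h or more at 35 °C, was inoculated to 10^5–10^6 cfu/mL into BPW (pH 7.0, 1% dextrose) containing test materials at set w/v %. Broth-alone controls were run. Tubes were held 14 days at 35 °C, then at room temperature.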
# Streptococcus mutans = system: Streptococcus mutans
# How it was run: as §1
structure (smiles),measurement,setting,value
"CC1(C)C(O)C(C)(C)C1O (stereo not drawn) [TMCD, 2,2,4,4-tetramethyl-1,3-cyclobutanediol]",Grade code C. albicans,"Candida albicans; 0.5%, 3 days incubation","4 (1001 to 10,000 colonies (thus 10,000 cfu/mL to 100,000 cfu/mL))"
same,Grade code C. albicans,"Candida albicans; 0.5%, 14 days incubation","4 (1001 to 10,000 colonies (thus 10,000 cfu/mL to 100,000 cfu/mL))"
same,Grade code C. albicans,"Candida albicans; 0.5%, 30 days incubation","4 (1001 to 10,000 colonies (thus 10,000 cfu/mL to 100,000 cfu/mL))"
same,Grade code C. albicans,"Candida albicans; 1.25%, 3 days incubation","3 (101 to 1000 colonies (thus 1000 to 10,000 cfu/mL))"
same,Grade code C. albicans,"Candida albicans; 1.25%, 14 days incubation","4 (1001 to 10,000 colonies (thus 10,000 cfu/mL to 100,000 cfu/mL))"
same,Grade code C. albicans,"Candida albicans; 1.25%, 30 days incubation","4 (1001 to 10,000 colonies (thus 10,000 cfu/mL to 100,000 cfu/mL))"
same,Grade code C. albicans,"Candida albicans; 2.5%, 3 days incubation","3 (101 to 1000 colonies (thus 1000 to 10,000 cfu/mL))"
same,Grade code C. albicans,"Candida albicans; 2.5%, 14 days incubation",2 (52 to 100 colonies counted (thus 520 to 1000 cfu/mL))
same,Grade code C. albicans,"Candida albicans; 2.5%, 30 days incubation",2 (52 to 100 colonies counted (thus 520 to 1000 cfu/mL))
same,Grade code S. epidermidis,"[1]; 0.5%, 3 days incubation","4 (1001 to 10,000 colonies (thus 10,000 cfu/mL to 100,000 cfu/mL))"
same,Grade code S. epidermidis,"[1]; 0.5%, 13 days incubation","4 (1001 to 10,000 colonies (thus 10,000 cfu/mL to 100,000 cfu/mL))"
same,Grade code S. epidermidis,"[1]; 0.5%, 30 days incubation","4 (1001 to 10,000 colonies (thus 10,000 cfu/mL to 100,000 cfu/mL))"
same,Grade code S. epidermidis,"[1]; 1.25%, 3 days incubation",2 (52 to 100 colonies counted (thus 520 to 1000 cfu/mL))
same,Grade code S. epidermidis,"[1]; 1.25%, 13 days incubation","3 (101 to 1000 colonies (thus 1000 to 10,000 cfu/mL))"
same,Grade code S. epidermidis,"[1]; 1.25%, 30 days incubation","4 (1001 to 10,000 colonies (thus 10,000 cfu/mL to 100,000 cfu/mL))"
same,Grade code S. epidermidis,"[1]; 2.5%, 3 days incubation",2 (52 to 100 colonies counted (thus 520 to 1000 cfu/mL))
same,Grade code S. epidermidis,"[1]; 2.5%, 13 days incubation",2 (52 to 100 colonies counted (thus 520 to 1000 cfu/mL))
same,Grade code S. epidermidis,"[1]; 2.5%, 30 days incubation",2 (52 to 100 colonies counted (thus 520 to 1000 cfu/mL))
same,Grade code S. mutans,"Streptococcus mutans; 0.5%, 3 days incubation","4 (1001 to 10,000 colonies (thus 10,000 cfu/mL to 100,000 cfu/mL))"
same,Grade code S. mutans,"Streptococcus mutans; 0.5%, 13 days incubation","4 (1001 to 10,000 colonies (thus 10,000 cfu/mL to 100,000 cfu/mL))"
same,Grade code S. mutans,"Streptococcus mutans; 0.5%, 30 days incubation","4 (1001 to 10,000 colonies (thus 10,000 cfu/mL to 100,000 cfu/mL))"
same,Grade code S. mutans,"Streptococcus mutans; 1.25%, 3 days incubation","4 (1001 to 10,000 colonies (thus 10,000 cfu/mL to 100,000 cfu/mL))"
same,Grade code S. mutans,"Streptococcus mutans; 1.25%, 13 days incubation","4 (1001 to 10,000 colonies (thus 10,000 cfu/mL to 100,000 cfu/mL))"
same,Grade code S. mutans,"Streptococcus mutans; 1.25%, 30 days incubation","4 (1001 to 10,000 colonies (thus 10,000 cfu/mL to 100,000 cfu/mL))"
same,Grade code S. mutans,"Streptococcus mutans; 2.5%, 3 days incubation","3 (101 to 1000 colonies (thus 1000 to 10,000 cfu/mL))"
same,Grade code S. mutans,"Streptococcus mutans; 2.5%, 13 days incubation",1 (1 to 51 colonies counted (thus 10 to 510 cfu/mL))
same,Grade code S. mutans,"Streptococcus mutans; 2.5%, 30 days incubation",0 (No growth detected or <1 colony (thus <10 cfu/mL))
